Measured values taken from patent US10512607B2, “Polymeric particles, method for cytosolic delivery of cargo, methods of making the particles” (University of Florida Research Foundation, Inc., priority 2015, dated 2019).

Tests used:
[1] = test system: Chinese hamster ovary (CHO-K1) cells; assay: CytoTox96 LDH cytotoxicity assay; assay type: cell-based; conditions: positive control for toxicity
Procedure: Chinese hamster ovary (CHO-K1) cells were grown in Ham's F12 medium (Mediatech) containing 10% fetal bovine serum (FBS, Hyclone), penicillin (100 units/mL), and streptomycin (100 μg/mL) at 37° C. in a humidified incubator with 5% CO2 [30]. Cell viability was determined via Trypan blue exclusion and was 97% with each passage.
Toxicity of MPs was determined employing CytoTox96 Non-radioactive Cytotoxity Assay (Promega). CHO cells were plated at a density of 10,000 cells per well in a 96 well tissue culture plate in 200 μL of cell culture medium. Cells were maintained at 37° C. in a humidified incubator in a 5% CO2 atmosphere. MPs were added at a ratio of 5, 10, 20, 30, 40, and 50 particles/cell and incubated at 37° C. for 24 h. The culture medium was transferred into wells of a clear bottom 96 well plate. Cells treated with 0.1% Triton X-100 were used as a positive control for 100% toxicity and cell culture medium alone was used for background subtraction for baseline lactate dehydrogenase (LDH) activity (background control). The cell supernatants were incubated with the developing reagents for 30 min per the manufacturer's instructions. The optical density of the developed color was determined by measuring absorbance at 490 nm. […]

[2] = test system: dendritic cells (DCs); assay: Calcein release from endosomal vesicles in dendritic cells; assay type: cell-based, mouse; conditions: 2 h at 37° C.
Procedure: DCs were isolated from mouse bone marrow tissues as previously described in Lewis et al. according to the guidelines set forth by the University of Florida Institutional Animal Care and Use Committee.
DCs were plated in 35 mm glass bottom culture dishes at a density of 5×10^4 cells in DC culture medium [DMEM:F12 1:1 (GE Healthcare Life Sciences), 10% fetal bovine serum, 1 mM sodium pyruvate, nonessential amino acids, penicillin-streptomycin, and 20 ng/mL GM-CSF (R&D systems)]. […] As a positive control, a portion of DCs were treated with the membrane permeable Acetoxymethyl ester of calcein (5 μM). Following treatment, cells were washed four times with phosphate buffered saline. New culture medium was added and the cells were imaged with a fluorescent microscope (Axiovert 200M microscope (Carl Zeiss, Oberkochen, Germany) using excitation/emission wavelengths of 495/515 nm at 200-fold magnification.
Images were analyzed by measuring the area of fluorescence per channel (green vs bright field). The values are reported as % relative fluorescence intensity per cell (RFI/cell).

Row | Compound | LDH release relative to basal background LDH activity in media without cells [1] | cytosolic distribution of calcein (fluorescent area over cell area) [2]
1 | Triton X-100 | 21 fold | –
2 | Acetoxymethyl ester of calcein [calcein AM] | – | ~95%
3 | O=C(O)CN(CC(=O)O)Cc1cc2c(cc1O)Oc1cc(O)c(CN(CC(=O)O)CC(=O)O)cc1C21OC(=O)c2ccccc21 [calcein alone] | – | less than 10%
